Experimental data taken from PubChem BioAssay AID256 (DTP/NCI, 2004).
Several values for one entry are separate records, joined by “and”; a condition that tells them apart may be missing. Equal values may be shown once. Toxic doses and inconclusive results are not listed. Rule for the calls: active = survival T/C of 150% or more; inactive = T/C below 125% in these data.

Test system: CD2F1 mice, L1210 leukemia ip, survival T/C
Assay: NCI In Vivo Anticancer Drug Screen. Data for tumor model L1210 Leukemia (intraperitoneal) in CD2F1 (CDF1) mice
Details: higher = longer survival
Method in brief: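 Vehicle-treated tumor-bearing mice served as controls (C) for compound-treated mice (T). Reported figure is T divided by C.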

[1] = endpoint: mean survival time, dose: 75.0 mg/kg/injection, schedule: Q01DX001 (ip), vehicle: saline
[2] = endpoint: mean survival time, dose: 100.0 mg/kg/injection, schedule: Q01DX001 (ip), vehicle: saline with Tween-80
[3] = endpoint: mean survival time, dose: 200.0 mg/kg/injection, schedule: Q01DX001 (ip), vehicle: saline with Tween-80
[4] = endpoint: mean survival time, dose: 400.0 mg/kg/injection, schedule: Q01DX001 (ip), vehicle: saline with Tween-80
[5] = endpoint: mean survival time, dose: 50.0 mg/kg/injection, schedule: Q01DX001 (ip), vehicle: saline

Measured: T/C

CCCCCC(C)NCCOC(=O)c1ccccc1 (stereo unspecified)
inactive: [1] 103 % of control | endpoint: mean survival time, dose: 150.0 mg/kg/injection, schedule: Q01DX001 (ip), vehicle: saline 100 % of control | endpoint: mean survival time, dose: 300.0 mg/kg/injection, schedule: Q01DX001 (ip), vehicle: saline 108 % of control

CN(Cc1cnc2nc(N)nc(N)c2n1)c1ccc(C(=O)NC(CCC(=O)O)C(=O)NCC(=O)O)cc1 (stereo unspecified)
inactive: endpoint: mean survival time, dose: 1.0 mg/kg/injection, schedule: Q01DX009 (ip), vehicle: sodium bicarbonate 103 % of control | endpoint: mean survival time, dose: 2.0 mg/kg/injection, schedule: Q01DX009 (ip), vehicle: sodium bicarbonate 109 % of control | endpoint: mean survival time, dose: 5.0 mg/kg/injection, schedule: Q01DX009 (ip), vehicle: sodium bicarbonate 102 % of control | endpoint: mean survival time, dose: 10.0 mg/kg/injection, schedule: Q01DX009 (ip), vehicle: sodium bicarbonate 108 % of control

CC1=C2CCCCC2(C)CCC1=O (stereo unspecified)
inactive: endpoint: mean survival time, dose: 100.0 mg/kg/injection, schedule: Q04DX002 (ip), vehicle: saline with Tween-80 120 % of control | endpoint: mean survival time, dose: 200.0 mg/kg/injection, schedule: Q04DX002 (ip), vehicle: saline with Tween-80 108 % of control | endpoint: mean survival time, dose: 400.0 mg/kg/injection, schedule: Q04DX002 (ip), vehicle: saline with Tween-80 100 % of control

CCCN(N=O)C(=O)Nc1ccc(C2CC(=O)N(C)C2=O)cc1 (stereo unspecified)
inactive: endpoint: mean survival time, dose: 12.5 mg/kg/injection, schedule: Q01DX001 (ip), vehicle: distilled water + Tween-80 112 % of control | endpoint: mean survival time, dose: 25.0 mg/kg/injection, schedule: Q01DX001 (ip), vehicle: distilled water + Tween-80 111 % of control | endpoint: mean survival time, dose: 50.0 mg/kg/injection, schedule: Q01DX001 (ip), vehicle: distilled water + Tween-80 109 % of control | endpoint: mean survival time, dose: 100.0 mg/kg/injection, schedule: Q01DX001 (ip), vehicle: distilled water + Tween-80 101 % of control | endpoint: mean survival time, dose: 200.0 mg/kg/injection, schedule: Q01DX001 (ip), vehicle: distilled water + Tween-80 107 % of control

N=C(OC/C=C/c1ccccc1)C(Cl)(Cl)Cl
inactive: [2] 93 % of control | [3] 93 % of control | [4] 93 % of control

O=C(COc1cccc(Cl)c1)Nc1cccc(NC(=O)c2ccc(S(=O)(=O)F)cc2)c1
inactive: [2] 91 % of control | [3] 90 % of control | [4] 101 % of control

O=C(O)C1CCC(NCc2ccccc2)CC1 (stereo unspecified)
inactive: endpoint: mean survival time, dose: 100.0 mg/kg/injection, schedule: Q01DX009 (ip), vehicle: Klucel (hydroxypropylcellulose) (HPC) 100 % of control | endpoint: mean survival time, dose: 200.0 mg/kg/injection, schedule: Q01DX009 (ip), vehicle: Klucel (hydroxypropylcellulose) (HPC) 100 % of control | endpoint: mean survival time, dose: 400.0 mg/kg/injection, schedule: Q01DX009 (ip), vehicle: Klucel (hydroxypropylcellulose) (HPC) 111 % of control

O=C(O)Cc1ccc(Br)cc1[N+](=O)[O-]
inactive: endpoint: mean survival time, dose: 100.0 mg/kg/injection, schedule: Q01DX001 (ip), vehicle: other 104 % of control | endpoint: mean survival time, dose: 200.0 mg/kg/injection, schedule: Q01DX001 (ip), vehicle: other 101 % of control | endpoint: mean survival time, dose: 400.0 mg/kg/injection, schedule: Q01DX001 (ip), vehicle: other 98 % of control

CN(C)Cc1cc(OCc2ccccc2)cc(CN(C)C)c1O
inactive: [1] 108 % of control

N=C(N)SCc1ccccc1
inactive: endpoint: mean survival time, dose: 6.25 mg/kg/injection, schedule: Q04DX003 (ip), vehicle: saline with Tween-80 114 % of control | endpoint: mean survival time, dose: 12.5 mg/kg/injection, schedule: Q01DX009 (ip), vehicle: saline with Tween-80 94 % of control | endpoint: mean survival time, dose: 12.5 mg/kg/injection, schedule: Q04DX003 (ip), vehicle: saline with Tween-80 100 % of control | endpoint: mean survival time, dose: 25.0 mg/kg/injection, schedule: Q01DX001 (ip), vehicle: saline 93 % of control | endpoint: mean survival time, dose: 25.0 mg/kg/injection, schedule: Q01DX009 (ip), vehicle: saline with Tween-80 96 % of control | endpoint: mean survival time, dose: 25.0 mg/kg/injection, schedule: Q04DX003 (ip), vehicle: saline with Tween-80 112 % of control | [5] 100 % of control | endpoint: mean survival time, dose: 50.0 mg/kg/injection, schedule: Q01DX009 (ip), vehicle: saline with Tween-80 93 % of control and 97 % of control | endpoint: mean survival time, dose: 50.0 mg/kg/injection, schedule: Q04DX003 (ip), vehicle: saline with Tween-80 94 % of control and 97 % of control | endpoint: mean survival time, dose: 100.0 mg/kg/injection, schedule: Q01DX001 (ip), vehicle: saline 96 % of control | endpoint: mean survival time, dose: 100.0 mg/kg/injection, schedule: Q04DX003 (ip), vehicle: saline with Tween-80 100 % of control | endpoint: mean survival time, dose: 200.0 mg/kg/injection, schedule: Q01DX009 (ip), vehicle: saline with Tween-80 86 % of control | endpoint: mean survival time, dose: 200.0 mg/kg/injection, schedule: Q04DX003 (ip), vehicle: saline with Tween-80 95 % of control

NC(CCl)=NCC12CC3CC(CC(C3)C1)C2
inactive: endpoint: median survival time, dose: 3.0 mg/kg/injection, schedule: Q01DX009 (ip), vehicle: Klucel (hydroxypropylcellulose) (HPC) 104 % of control | endpoint: median survival time, dose: 6.0 mg/kg/injection, schedule: Q01DX009 (ip), vehicle: Klucel (hydroxypropylcellulose) (HPC) 107 % of control | endpoint: median survival time, dose: 12.0 mg/kg/injection, schedule: Q01DX009 (ip), vehicle: Klucel (hydroxypropylcellulose) (HPC) 108 % of control | endpoint: median survival time, dose: 24.0 mg/kg/injection, schedule: Q01DX009 (ip), vehicle: Klucel (hydroxypropylcellulose) (HPC) 110 % of control

Cc1cc(N(CCCl)CCCl)ccc1N=Nc1ccccc1C(=O)O
inactive: endpoint: mean survival time, dose: 2.0 mg/kg/injection, schedule: Q01DX009 (ip), vehicle: saline with Tween-80 112 % of control | endpoint: mean survival time, dose: 4.0 mg/kg/injection, schedule: Q01DX009 (ip), vehicle: saline with Tween-80 120 % of control | endpoint: mean survival time, dose: 4.0 mg/kg/injection, schedule: Q04DX003 (ip), vehicle: saline with Tween-80 102 % of control | endpoint: mean survival time, dose: 5.0 mg/kg/injection, schedule: Q01DX009 (ip), vehicle: saline 114 % of control and 106 % of control | endpoint: mean survival time, dose: 8.0 mg/kg/injection, schedule: Q01DX009 (ip), vehicle: saline with Tween-80 120 % of control | endpoint: mean survival time, dose: 8.0 mg/kg/injection, schedule: Q04DX003 (ip), vehicle: saline with Tween-80 109 % of control | endpoint: mean survival time, dose: 10.0 mg/kg/injection, schedule: Q01DX001 (ip), vehicle: saline with Tween-80 106 % of control | endpoint: mean survival time, dose: 10.0 mg/kg/injection, schedule: Q01DX009 (ip), vehicle: saline with Tween-80 114 % of control | endpoint: mean survival time, dose: 10.0 mg/kg/injection, schedule: Q01DX009 (ip), vehicle: saline 115 % of control and 120 % of control | endpoint: mean survival time, dose: 10.0 mg/kg/injection, schedule: Q03DX003 (ip), vehicle: saline 113 % of control | endpoint: mean survival time, dose: 16.0 mg/kg/injection, schedule: Q04DX003 (ip), vehicle: saline with Tween-80 115 % of control | endpoint: mean survival time, dose: 20.0 mg/kg/injection, schedule: Q01DX001 (ip), vehicle: saline with Tween-80 102 % of control | endpoint: mean survival time, dose: 20.0 mg/kg/injection, schedule: Q01DX009 (ip), vehicle: saline with Tween-80 109 % of control | endpoint: mean survival time, dose: 20.0 mg/kg/injection, schedule: Q01DX009 (ip), vehicle: saline 122 % of control | endpoint: mean survival time, dose: 32.0 mg/kg/injection, schedule: Q01DX009 (ip), vehicle: saline with Tween-80 97 % of control | endpoint: mean survival time, dose: 40.0 mg/kg/injection, schedule: Q01DX001 (ip), vehicle: saline with Tween-80 115 % of control and 120 % of control | endpoint: mean survival time, dose: 40.0 mg/kg/injection, schedule: Q01DX007 (ip), vehicle: saline 100 % of control | endpoint: mean survival time, dose: 40.0 mg/kg/injection, schedule: Q01DX009 (ip), vehicle: saline 89 % of control | endpoint: mean survival time, dose: 64.0 mg/kg/injection, schedule: Q04DX003 (ip), vehicle: saline with Tween-80 103 % of control | endpoint: mean survival time, dose: 80.0 mg/kg/injection, schedule: Q01DX001 (ip), vehicle: saline with Tween-80 117 % of control and 91 % of control | endpoint: mean survival time, dose: 160.0 mg/kg/injection, schedule: Q01DX001 (ip), vehicle: saline with Tween-80 102 % of control | endpoint: median survival time, dose: 5.0 mg/kg/injection, schedule: Q01DX009 (ip), vehicle: saline 114 % of control and 105 % of control | endpoint: median survival time, dose: 10.0 mg/kg/injection, schedule: Q01DX009 (ip), vehicle: saline 117 % of control | endpoint: median survival time, dose: 20.0 mg/kg/injection, schedule: Q01DX009 (ip), vehicle: saline 117 % of control | endpoint: median survival time, dose: 40.0 mg/kg/injection, schedule: Q01DX009 (ip), vehicle: saline 114 % of control and 117 % of control

C/C=C1\C(=O)O[C@@]23C=C[C@H]4C(C(=O)OC)=CO[C@@H](O[C@H]12)[C@H]43
inactive: [5] 95 % of control
